2 compounds from patent US20250346943A1, “DEGRADER COMPOUNDS OF QSOX1 mRNA” (UNIVERSITY OF FLORIDA RESEARCH FOUNDATION, INCORPORATED, priority 2022, published 2025) can be followed below.

Entries after “also recorded” stand apart in the source; their conditions may differ.

Test [1] relates to mutant RNA (U-bulge mutated to U/A base pair). Put plainly: Optical melting, mutant model RNA. Format: binding. As for the experimental part: Optical Melting Experiments. The thermal stability of WT and mutant model RNAs in the presence and absence of F1-Amide was measured by optical melting. The RNA ([…]) was prepared in 1× Melting Buffer (8 mM Na2HPO4, pH 7, 10 mM NaCl, and 1 mM EDTA) and heated to 95° C. followed by cooling on ice. F1-Amide was added to the final concentration of 2 mM; an equal volume of DMSO was added to the vehicle sample. The absorbance of the solution at 260 nm was measured by a Beckman Coulter DU800 spectrophotometer as a function of temperature, from 12° C. to 85° C. at a rate of 1° C./min. The background absorbance of buffer with DMSO or compound was subtracted before fitting the curve with MeltWin (v3.5)^7 to determine the melting temperature (Tm) and the Gibbs free energy (ΔG37° C.).

Test [2] concerns base paired (BP) mutant RNA lacking the U-bulge. Put plainly: In vitro Chem-CLIP with Cy5-labeled mutant RNA. Format: binding. Particulars: U-bulge mutated to A/U base pair. The protocol: In Vitro Chemical-Crosslinking and Isolation by Pull-down (Chem-CLIP) with Fluorescently Labeled RNA. Cy5-labeled RNA (100 μL, 2 μM) was folded by heating at 95° C. for 2 min in 1× Folding Buffer and cooled on ice. The RNA was then mixed with F1 at the indicated concentrations. The sample was irradiated with UV light (365 nm) for 15 min and then added to 100 μL of azide-disulfide agarose beads (Click Chemistry Tools, 1238-2) pre-washed with 200 μL of 25 mM HEPES, pH 7.0. A click reaction solution was prepared by mixing 30 μL of 250 mM sodium ascorbate, 30 μL of 10 mM CuSO4, and 30 μL of 50 mM THPTA, which was added to the sample. The sample was incubated while rotating at 37° C. for 2 h, briefly centrifuged, and then the supernatant was decanted. The beads were washed six times with 1× Washing Buffer (10 mM Tris-HCl, pH 7, 4 M NaCl, 1 mM EDTA, and 0.05% (v/v) Tween-20) following by incubation with 1× Releasing Buffer (50 mM TCEP and 100 mM K2CO3) at 37° C. for 30 min. An equivalent of iodoacetamide (200 mM) was added to the sample, which was incubated at 37° C. for an additional 30 min. The sample was briefly centrifuged and supernatant containing RNA was carefully transferred to a clean tube. Cy-5 fluorescence in the supernatant was measured with a Molecular Devices SpectraMax M5 plate reader with an excitation wavelength of 640 nm and an emission wavelength of 680 nm. […]

Test [3] concerns wild type (WT) QSOX1 5′ UTR RNA hairpin. Put plainly: In vitro Chem-CLIP and competitive Chem-CLIP with Cy5-labeled WT RNA. Format: binding, human. As for the experimental part:
In Vitro Chemical-Crosslinking and Isolation by Pull-down (Chem-CLIP) with Fluorescently Labeled RNA. Cy5-labeled RNA (100 μL, 2 μM) was folded by heating at 95° C. for 2 min in 1× Folding Buffer and cooled on ice. The RNA was then mixed with F1 at the indicated concentrations. The sample was irradiated with UV light (365 nm) for 15 min and then added to 100 μL of azide-disulfide agarose beads (Click Chemistry Tools, 1238-2) pre-washed with 200 μL of 25 mM HEPES, pH 7.0. A click reaction solution was prepared by mixing 30 μL of 250 mM sodium ascorbate, 30 μL of 10 mM CuSO4, and 30 μL of 50 mM THPTA, which was added to the sample. The sample was incubated while rotating at 37° C. for 2 h, briefly centrifuged, and then the supernatant was decanted. The beads were washed six times with 1× Washing Buffer (10 mM Tris-HCl, pH 7, 4 M NaCl, 1 mM EDTA, and 0.05% (v/v) Tween-20) following by incubation with 1× Releasing Buffer (50 mM TCEP and 100 mM K2CO3) at 37° C. for 30 min. An equivalent of iodoacetamide (200 mM) was added to the sample, which was incubated at 37° C. for an additional 30 min. The sample was briefly centrifuged and supernatant containing RNA was carefully transferred to a clean tube. Cy-5 fluorescence in the supernatant was measured with a Molecular Devices SpectraMax M5 plate reader with an excitation wavelength of 640 nm and an emission wavelength of 680 nm. For competitive Chem-CLIP, F1-RIBOTAC was added to the folded the RNA and incubated at room temperature for 15 min prior to the addition of F1. Pull-down was then completed as described above.

The test system of test [4] is QSOX1-a mRNA. Put plainly: QSOX1-a mRNA abundance in RNase L-knockdown (CRISPR-edited) MDA-MB-231 cells. Format: cell-based, human. The settings on record: CRISPR-edited cells with RNase L knockdown. The protocol:
The CRISPR-edited MDA-MB-231 cell lines used in this study were the same as those previously reported and characterized.^8 Briefly, lentiviral constructs containing Cas9 and gRNA targeting RNase L mRNA (or a scramble control) were purchased (Transomic Tech) and transfected in HEK293T cells (ATCC CRL-11268) to harvest virus. Transduction to MDA-MB-231 cells were performed in the presence of […] polybrene (Millipore, Cat #TR-1003-G) followed by selection with puromycin.
Analysis of mRNA Abundance by RT-qPCR. Unless stated otherwise, all RT-qPCR experiments were performed to measure nascent RNA levels by using Click-it Nascent RNA Capture Kit (Cat #C10365, Thermo Fisher) per the manufacturer's protocols. Briefly, cells were treated with 0.2 mM of ethynyl uridine (EU) in growth medium for 16 h, after which the medium was replaced with fresh growth medium lacking EU. Compound or ASO treatment was performed at the same time of initial EU treatment, and compounds were replenished after replacing the medium to remove EU. Total RNA was extracted by using a Zymo Quick-RNA Miniprep Kit as per manufacturer's protocol with DNase treatment. The click reaction and pull-down of nascent RNA were performed as described in “In Vitro Chemical-Crosslinking and Isolation by Pull-down (Chem-CLIP) with Fluorescently Labeled RNA”. […]

The test system of test [5] is MDA-MB-231 cells. Put plainly: Invasion assay. Format: cell-based, human. Particulars: 10 μM, 48 h. The protocol:
Invasion Assay. MDA-MB-231 cells were seeded in […] and treated with compound or transfected by ASO for 48 h as described in Cell Culture. After treatment for 48 h, the medium was replaced with fresh medium that contains same concentration of compound but lacking FBS for 8 h (serum starvation). ThinCert (GBO) 24-well inserts with 8 μm pores were coated with 100 μL of 0.5 mg/mL Matrigel (Fisher Scientific: CB40234) per well, and then cells were added into the insert (50,000 cells per well). Fresh growth medium with FBS was added to a 24-well plate (600 μL each well), and the inserts containing cells were placed on the top, allowing medium to cover the bottom of the insert. After 16 h, all medium was removed, and cells were washed by 1×DPBS twice. Cells were then fixed with 3% (w/v) paraformaldehyde (PFA) in 1×DPBS at room temperature for 30 min, followed by staining with Crystal Violet (10 mg/mL; 4:1H2O:MeOH) at room temperature for 20 min. A cotton swab was used to gently remove non-invasive cells on sitting on top of the Matrigel. The inserts were then imaged under a regular optical microscope (3 views per well), and the number of invasive cells were counted manually.

In test [6] the test system is MDA-MB-231 cells. Briefly: Proliferation assay. Format: cell-based, human. The settings on record: 48 h treatment. As for the experimental part:
Proliferation Assay. MDA-MB-231 cells were seeded in 96-well plates (Corning) at ˜40% confluency and treated with compound or transfected with ASO as described in Cell Culture. Compound was replenished every 16 h by replacing all the growth medium with freshly prepared medium containing same concentration of compounds. After 48 h total treatment period, proliferation was measured by using CellTiter 96 AQueous One Solution Cell Proliferation Assay (Cat #G3582, Promega) per manufacturer's protocol.

With `C#CCCC1(CCC(=O)N(C)[C@H]2CC[C@@H](c3ccc(Cl)c(Cl)c3)c3ccccc32)N=N1` [Compound F1], in test [1], the “effect on Tm or ΔG37° C. of mutant RNA” value is listed as “No changes”. Moreover, in test [2], the “cross-linking / pull-down of mutant RNA” value is listed as “ablated”. In addition, the “cross-linking / pull-down of WT QSOX1-a 5′ UTR hairpin” value in test [3] (in vitro Chem-CLIP) is recorded as “selectively cross-linked; also recorded: significantly pulled down”.

On to `CCOC(=O)C1=C(Nc2ccccc2)S/C(=C\c2ccc(OCCOCCOCCOCCNC(=O)CCC(=O)N(C)[C@H]3CC[C@@H](c4ccc(Cl)c(Cl)c4)c4ccccc43)c(O)c2)C1=O` [Compound F1-RIBOTAC], for which the “effect on QSOX1-a mRNA in RNase L-knockdown cells” value in test [4] is “ablated”. Also, the “reduction of the number of invasive MDA-MB-231 cells” value in test [5] was approximately 40%. In addition, in test [6], the “antiproliferative activity compared to F1-Amide delivered at twice the dose” value is “enhanced activity” and the “effect on proliferation of MDA-MB-231 cells” value is “dose-dependently reduced proliferation”. For the same compound, the “competition of F1 cross-linking to the QSOX1-a target site (competitive Chem-CLIP)” value in test [3] (constant concentration of F1, increasing competitor) is reported as “dose-dependently competed off; also recorded: dose-dependently ablates”.
